US20020061862A1, “Inducible nitric oxide synthase for treatment of disease” (University of Pittsburgh of the Commonwealth System of …, priority 1992, published 2002)

Columns and labels:
[1] = test system: sheep pulmonary artery endothelial cells (SPAEC); format: cell-based; conditions: L-NMA 0.5 mM, BH4 100 μM
3T3-iNOS cells = assay: NO2- production (iNOS activity) in transfected 3T3-iNOS cells; format: cell-based, murine; conditions: MTX 12.5 μM
Method: Cells were passaged to 6 well plates at a density of 1×10^5 cells/well 24 h prior to transfection. For 3T3 cells, each well of cells was transfected with a mixture of 1 μg plasmid DNA and 6 μg of Lipofectamine (GIBCO) in OPTIMEM-I media for 5 h. For RSMC, a ratio of 1 μg DNA to 7 μl of Lipofectamine was used. Following the incubation period, the transfection solution was removed and normal growth medium replaced. The transfection efficiency was estimated by X-gal staining of pIEP-lacZ transfected cells. All studies were performed at 24-72 h post-transfection.
Twenty four hours following transfection, the cell medium was then replaced with fresh medium and the cells were cultured for an additional 24 h at which time the supernatants were assayed for accumulated NO2 using the Griess reaction (Geller, et al., 1993, Proc. Natl. Acad. Sci. USA: 90:522-526). Measurements were also performed in the presence of L-NMA (1 mM), BH4 (100 μM), and methotrexate (MTX 12.5 μM). The cells were lysed with 0.1 M NaOH and the protein concentration was quantified with the BCA protein assay. To assess the requirement for compression of GTPCH and iNOS in the same cell, 3T3 cells were transfected with either pIEPlacZ or pCIS-GTPCH. […] Cells were allowed to attach overnight and NO2− levels were measured 24 h later.

[2] = test system: ecNOS mRNA and protein in SPAEC; assay: Northern and Western blot for ecNOS expression in SPAEC; format: cell-based, sheep; conditions: 1 mM, 6 h, versus SPAEC treated with the parent compound
Method: Aliquots (20 μg) of RNA were electrophoresed on a 0.9% agarose gel and blotted to GeneScreen (DuPontNEN; Boston, Mass.). After prehybridization, the membranes were hybridized to a DNA probe as described (Geller, et al., 1993, Proc. Natl. Acad. Sci. USA 90:522-526). A 2.3 kb human iNOS cDNA fragment served as the iNOS probe while a 4.1 kb human endothelial cNOS cDNA fragment served as the ecNOS probe. 18S rRNA served as a control for relative RNA loading.
The cells were lysed by three freeze-thaw cycles, and the cytosolic fraction was isolated by centrifugation at 100,000×g for 60 min at 4° C. as previously described (Luss, et al., 1994, Biochem. Biophys. Res. Comm. 204-2: 635-640). Protein concentrations were measured with the BCA protein assay (Pierce; Rockford, Ill.). For whole cell preparations, a similar procedure was performed without the centrifugation step.
Cell cytosols (100μg) were electrophoresed through an 8% SDS-polyacrylamide gel and transferred to nitrocellulose membranes (Schleicher Schuell; Keene, N.H.) as described (Laemmli, 1970, Nature 227: 680-685). […]

CNC(=N)NCCC[C@H](N)C(=O)O [L-NMA, N^G-monomethyl-L-arginine]
effect of agent added to culture medium on nitrogen oxide synthesis / NO2^− production of SPAEC/DFG-iNOS-Neo [1]: inhibited

CN(Cc1cnc2nc(N)nc(N)c2n1)c1ccc(C(=O)N[C@@H](CCC(=O)O)C(=O)O)cc1 [MTX, methotrexate]
reduction of iNOS activity recovered by BH4 supplementation (3T3-iNOS cells; 3T3-iNOS, FIG. 23): over 5 fold
reduction of iNOS activity (3T3-iNOS cells; pCIS-GTPCH transfected 3T3iNOS cells): 50%

CC(=O)N[C@H](C(=O)O)C(C)(C)SN=O [SNAP, S-nitroso-N-acetyl-penicillamine]
increase in ecNOS mRNA [2]: 1.5 fold
